Experimental data as given in PubChem BioAssay (NCI).
Where “and” joins values, the source holds several entries; their conditions need not be identical. Equal values may be shown once.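 These data come from cells grown in 96-well plates and exposed to compound for 48 hours at five concentrations. GI50 = concentration required for 50% inhibition of growth. TGI denotes the concentration required for complete inhibition of growth.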

Tests used:
Experiment in all cases: inhibition of tumour cell growth, NCI panel, 48 h
[1] = tested on: A498 renal
[2] = tested on: MOLT-4 leukemia
[3] = tested on: RPMI-8226 leukemia
[4] = tested on: IGROV1 ovarian
[5] = tested on: HT29 colon
[6] = tested on: M14 melanoma
[7] = tested on: OVCAR-8 ovarian
[8] = tested on: HOP-62 NSCLC
[9] = tested on: SK-MEL-5 melanoma
[10] = tested on: NCI/ADR-RES ovarian

| SMILES | GI50 [1] | GI50 [2] | TGI [2] | GI50 [3] | TGI [3] | GI50 [4] | TGI [4] | GI50 [5] | TGI [5] | GI50 [6] | TGI [6] | GI50 [7] | TGI [7] | GI50 [8] | TGI [8] | GI50 [9] | TGI [9] | GI50 [10] | TGI [1] | TGI [10] |
| --- | --- | --- | --- | --- | --- | --- | --- | --- | --- | --- | --- | --- | --- | --- | --- | --- | --- | --- | --- | --- |
| COc1ccc2c(c1)CC[C@H](O)/C2=C/c1cc(OC)c(OC)c(OC)c1 | 0.0467 µM | 0.351 µM | > 100 µM | 1.82 µM | > 51.3 µM | 1.38 µM | > 100 µM | 0.107 µM | > 100 µM | 0.101 µM | > 100 µM | 0.36 µM | > 100 µM | 0.0876 µM | > 100 µM | 0.0608 µM | 2.89 µM | 0.0639 µM |  |  |
| COc1nc(N)nc2c1ncn2C1OC(CO)C(O)C1O (stereo not drawn) | > 5000 µM | 5.7 µM and 19.5 µM | 2260 µM | 3580 µM | > 5000 µM |  | > 5000 µM | > 5000 µM | > 5000 µM | > 5000 µM | > 5000 µM | > 5000 µM | > 5000 µM | 2010 µM | > 5000 µM | 164 µM | > 5000 µM | > 5000 µM | > 5000 µM | > 5000 µM |
| CN/N=C(\C)C(CN(C)C)C(c1ccccc1)c1c(O)c2ccccc2oc1=O (stereo not drawn) |  |  | > 100 µM |  | > 100 µM |  | > 100 µM |  | > 100 µM |  | > 100 µM |  | > 100 µM |  | > 100 µM |  | > 100 µM |  | > 100 µM | > 100 µM |
| O=C1/C(=C\c2ccccn2)c2ccccc2N1c1c(Cl)cccc1Cl | 2.1 µM | 4.2 µM | > 65.7 µM | 2.8 µM | > 22.4 µM | 2.26 µM | 6.92 µM | 2.53 µM | 5.75 µM | 1.78 µM | 3.72 µM | 2.41 µM | 8.34 µM | 2.07 µM | 5.04 µM | 1.61 µM | 3.03 µM | 2.51 µM | 5.98 µM | 6.95 µM |
| N#CCN/C=C\C(=O)c1ccc(Cl)cc1 | 38.6 µM | 21.3 µM | > 100 µM | 22.6 µM | > 100 µM | 31 µM | > 100 µM |  |  | 20.3 µM | > 100 µM | 38.4 µM | > 100 µM | 38.6 µM | > 100 µM | 17.6 µM | 38.8 µM | 28.9 µM | > 100 µM | 79.5 µM |
| Cc1cc(CC(C)CC(C)(C)C)n(O)c(=O)c1 (stereo not drawn) (tested in a mixture with another compound) | 0.944 µM | 0.246 µM | 0.714 µM | 0.365 µM | 8.06 µM | 0.464 µM | 16.7 µM | 3.91 µM | 17.5 µM | 0.285 µM | 1.16 µM | 0.41 µM | > 100 µM | 0.677 µM | 16.1 µM | 0.292 µM | 1.01 µM | 0.373 µM | 10.3 µM | 4.02 µM |
| O=Cc1ccc(-c2ccc(-c3nc4ccccc4o3)cc2)o1 | 21.2 µM | 52 µM | > 100 µM |  |  | 38.6 µM | > 100 µM | 53.2 µM | > 100 µM | 44.1 µM | > 100 µM | 33.3 µM | > 100 µM | 49.2 µM | > 100 µM | 22 µM | 62 µM | 18.3 µM | > 100 µM | 63.8 µM |
| Cc1ccc(C)c(C2NC(=O)c3ccccc3N2)c1 (stereo not drawn) |  |  | 31.9 µM |  | 16.4 µM |  | > 100 µM |  | > 54.2 µM |  | 26.1 µM |  | > 79.6 µM |  | > 87.6 µM |  | 21.3 µM |  | 32 µM | 8.37 µM |
| Cc1cc(C)c(Cn2cnc3c(Cl)ncnc32)c(C)c1CCl | > 100 µM | 23.3 µM | 63.4 µM | 24.4 µM | > 100 µM | > 100 µM | > 100 µM | 25.8 µM | > 100 µM | 99.4 µM | > 100 µM | > 100 µM | > 100 µM | > 100 µM | > 100 µM | > 100 µM | > 100 µM | > 100 µM | > 100 µM | > 100 µM |
| CN1C(=O)N[C@H]2[C@@H]3NC(=O)c4ccc(Br)n4[C@@H]3C[C@]21O | 0.27 µM | 0.0704 µM | 0.351 µM | 0.0831 µM | 0.417 µM | 0.0617 µM | 1.6 µM | 0.0956 µM | 2.29 µM | 0.0454 µM | 0.236 µM | 0.259 µM | 1.93 µM | 0.117 µM | 1.09 µM | < 0.0148 µM | 0.0653 µM | 0.386 µM | 1.17 µM | 2.22 µM |
